The test system of experiment [1] is RAW 264.7 cells. Briefly: TNFα production by WT RAW 264.7 cells. The format is cell-based. The conditions noted are these: 500 nM, 8 h. As for the experimental part: Splenic DCs (5 × 10^5 cells/mL) were stimulated by Pam3 (200 nM), SUP3 (200 nM), or CpG ODN 1668 (20 nM; Adipogen IAX-200-001) in the GM-CSF (20 ng/mL) supplemented medium for indicated periods. Cell culture supernatants were harvested at indicated time points and stored at −40°C. […] For in vivo administration, Pam3 (2 nmol per mouse), SUP3 (2 nmol per mouse), or LPS (1 µg per mouse) were intravenously (i.v.) injected via tail veins. Serum was obtained through tail vein bleeding and centrifuged after coagulation and stored at −40°C. Cytokines (IL-6, eBioscience 88-7064; TNFα, eBioscience 88-7324; IL-12p40, BioLegend 431604), chemokine (MIP1α, R&D Systems DY450-05), and total IgM (eBioscience, 88-50470) were quantified by ELISA kits following the instructions of manufacturers.
Figure 1 Specificity and activity of novel TLR2 agonist SUP3. (A) Schematic chemical structure of SUP3. (B) Surface expression of TLR2 in wild-type (WT) and Tlr2^−/− RAW 264.7 cell lines. Gray shadows represented isotype control and black lines represented TLR2. (C) TNFα production by RAW 264.7 cells upon stimulation with lipopolysaccharide (LPS) (1 µg/mL), Pam3CSK4 (Pam3 hereafter) (500 nM), or SUP3 (500 nM) for 8 h. […] The production of cytokines IL-6 and TNFα in culture supernatant was determined by ELISA. *p < 0.05, ****p < 0.0001, “n.s.” indicates statistically non-significant.

Experiment [2] relates to GMDCs. The experiment can be described thus: Cytokine production by GMDCs. The format is cell-based, mice. As to conditions: 200 nM, 24 h, ELISA; SUP3 versus Pam3. Here is the method: Splenic DCs (5 × 10^5 cells/mL) were stimulated by Pam3 (200 nM), SUP3 (200 nM), or CpG ODN 1668 (20 nM; Adipogen IAX-200-001) in the GM-CSF (20 ng/mL) supplemented medium for indicated periods. Cell culture supernatants were harvested at indicated time points and stored at −40°C. RAW 264.7 cells and GMDCs were stimulated by lipopolysaccharide (LPS) (20 ng/mL; Adipogen IAX-100-013), Pam3, or SUP3 (both at 200 nM) for 24 h. For in vivo administration, Pam3 (2 nmol per mouse), SUP3 (2 nmol per mouse), or LPS (1 µg per mouse) were intravenously (i.v.) injected via tail veins. Serum was obtained through tail vein bleeding and centrifuged after coagulation and stored at −40°C. Cytokines (IL-6, eBioscience 88-7064; TNFα, eBioscience 88-7324; IL-12p40, BioLegend 431604), chemokine (MIP1α, R&D Systems DY450-05), and total IgM (eBioscience, 88-50470) were quantified by ELISA kits following the instructions of manufacturers.
Figure 1 Specificity and activity of novel TLR2 agonist SUP3. (A) Schematic chemical structure of SUP3. (B) Surface expression of TLR2 in wild-type (WT) and Tlr2^−/− RAW 264.7 cell lines. Gray shadows represented isotype control and black lines represented TLR2. […] The production of cytokines IL-6 and TNFα in culture supernatant was determined by ELISA. *p < 0.05, ****p < 0.0001, “n.s.” indicates statistically non-significant.

In experiment [3] the test system is CD8^+ cDCs. The experiment can be described thus: Antigen cross-presentation by splenic CD8+ cDCs to OT-I CD8+ T cells in vitro. The conditions noted are these: 200 nM; SUP3 versus Pam3. The format is cell-based, mice. Here is the method:
Antigen presentation assays were performed as previously described ([38]). Briefly, ovalbumin (OVA) (10 µg/mL; Sigma A7641) pulsed cDCs were stimulated with or without TLR agonists for 4 h. OT-I CD8^+ T cells and OT-II CD4^+ T cells were purified and then labeled by carboxyfluorescein diacetate succinimidyl ester (CFSE) (1 µM; Molecular Probes C34554). CD8^+ cDCs were cocultured with OT-I CD8^+ T cells for 60 h, whereas CD11b^+ cDCs were cocultured with OT-II CD4^+ T cells for 96 h, both in the presence of granulocyte-macrophage colony-stimulating factor (GM-CSF) (20 ng/mL; Peprotech 315-03). Proliferated OT-I or OT-II T cells were defined as diluted CFSE signal analyzed by flow cytometry. The numbers of T cells were counted by AccuCheck counting beads (Molecular Probes PCB100). […] Cells were washed twice with cold medium and analyzed by flow cytometry.
Figure 3 SUP3 facilitated cross-presentation of ovalbumin (OVA) antigen by CD8^+ conventional dendritic cells (cDCs) in vitro. […] Cells were washed and cocultured with carboxyfluorescein diacetate succinimidyl ester (CFSE)-labeled OT-I CD8^+ T cells for 60 h and analyzed by flow cytometry. (A) The dividing OT-I cells were measured by reduced level of CFSE-labeling. […] (B) Absolute numbers of proliferated OT-I T cells were calculated. (C) Interferon-γ from the supernatant of coculture was determined by ELISA 24 h later. […]

Where a SMILES comes first, the peptide text is derived from it. The star is where a group is joined. X1 = CCCCCCCCCCCCCCNC(=O)OC[C@H](C*)OC(=O)NCCCCCCCCCCCCCC; Palmitoyl = CCCCCCCCCCCCCCCC(=O)*

Take `CCCCCCCCCCCCCCCC(=O)N[C@@H](CSC[C@@H](COC(=O)NCCCCCCCCCCCCCC)OC(=O)NCCCCCCCCCCCCCC)C(=O)NCC(=O)N[C@@H](CCCCN)C(=O)N[C@@H](CCCCN)C(=O)N[C@@H](CCCCN)C(=O)O` [SUP3, (2S,5S,8S,14R,18R)-2,5,8-tris(4-aminobutyl)-4,7,10,13,21-pentaoxo-14-palmitamido-18-((tetradecylcarbamoyl)oxy)-20-oxa-16-thia-3,6,9,12,22-pentaazahexatriacontan-1-oic acid] (Palmitoyl-C(X1)GKKK-OH): in experiment [1], the “TNFα production by WT RAW cells” value was “large amount of TNFα production”. For the same compound, in experiment [2], the “production of IL-6 and TNFα by GMDCs” value is “comparable”. Besides, the “enhancement of cross-presentation by CD8+ cDCs in vitro” value in experiment [3] is “comparable”.
As for Pam3CSK4 [reference compound], in experiment [1], the “TNFα production by WT RAW cells” value is given as “large amount of TNFα production”. For the same compound, the “enhancement of cross-presentation by CD8+ cDCs in vitro” value in experiment [3] was “comparable”.

Source of the values: paper PMC5318439, “The Novel Toll-Like Receptor 2 Agonist SUP3 Enhances Antigen Presentation and T Cell Activation by Dendritic Cells” (Frontiers in Immunology, 2017).
